# Patent publication US20070032520A1, “Indol-5-yl sulfonamide derivatives, their preparation and their use 5-ht-6 as modulators” (Laboratorios Del Dr. Esteve S.A, priority 2003, published 2007)
row,melting point,SMILES
1,124 to 126 °C,"CN(C)CCn1ccc2cc(NS(=O)(=O)c3cc(Cl)cc(Cl)c3)ccc21 [Example 12, N-[1-(2-dimethylaminoethyl)-1H-indole-5-yl]-3,5-dichlorobenzenesulfonamide]"
2,120 to 123 °C,"CN(C)CCn1ccc2cc(NS(=O)(=O)c3cc(Cl)c(Cl)s3)ccc21 [Example 20, N-[1-(2-dimethylaminoethyl)-1H-indole-5-yl]-4,5-dichlorothiophene-2-sulfonamide]"

# Second part, the molecule before the results:
row,SMILES,melting point
1,"CN(C)CCn1ccc2cc(NS(=O)(=O)c3cccc4c(Cl)cccc34)ccc21 [Example 4, N-[1-(2-dimethylaminoethyl)-1H-indole-5-yl]-5-chloronaphthalene-1-sulfonamide]",172 to 174 °C
2,"CN(C)CCn1ccc2cc(NS(=O)(=O)c3cccc(Br)c3)ccc21 [Example 13, N-[1-(2-dimethylaminoethyl)-1H-indole-5-yl]-3-bromobenzenesulfonamide]",114 to 116 °C
3,"CN(C)CCn1ccc2cc(NS(=O)(=O)c3c(Cl)nc4sccn34)ccc21 [Example 11, N-[1-(2-dimethylaminoethyl)-1H-indole-5-yl]-6-chloroimidazo[2,1-b]thiazole-5-sulfonamide]",50 to 52 °C
4,"CN(C)CCn1ccc2cc(NS(=O)(=O)c3cccc4ccccc34)ccc21 [Example 3, N-[1-(2-dimethylaminoethyl)-1H-indole-5-yl]-naphthalene-1-sulfonamide]",179 to 181 °C
